Measured values published in patent US20250312504A1, “VOLATILE COMPOSITION […] FOR COMPOSITIONS COMPRISING A META-(C1-C4 ALKOXY) […]” (The Procter & Gamble Company, priority 2024, published 2025).

What was measured:
Format in all cases: physicochemical
[1] = Headspace Method, air/solvent partition out of isopropyl myristate (IPM); details: relative to ethylvanillin
Description: (§1) Perfume headspace data is collected for various materials according to the method provided below.
(§2) The partition coefficients are calculated by determining the amount of PRM in the headspace above a solution with a known concentration using a GC/FID-MS (Agilent 7890 and 5977A MSD) with a thermal desorption unit (Gerstel MPS2) and Dynamic Headspace Sampler (Gerstel DHS). This technique allows for automated headspace collections using the MultiPurposeSampler (MPS). The PRMs of interest are prepared at a known concentration in isopropyl myristate (IPM) or dipropylene glycol methyl ether (DPM), and 1 mL is pipetted in a 20 mL headspace vial. […]
(§3) Analytical standards can be obtained from Sigma Aldrich, St. Louis, MO and BioSynth, UK. A stock solution is prepared at approximately 0.5 g/L. The stock solution is then diluted to 4 to 5 concentrations ranging from approximately 0.05 g/L to 0.00005 g/L. These standard solutions are then analyzed by GC/MS. […]
(§4) Quantification of the headspace is performed by the PRM target m/z area response of the perfume component and the linear equation of the calibration plot.
(§5) Perfume headspace data is collected for various materials according to the Headspace Method provided above in the Test Methods section. The Air/Solvent partition coefficients are determined and indexed accordingly (e.g., where the partition coefficient for ethylvanillin is set at 1.00).

[2] = Electronic air freshener device test of DPM solutions (crystallization, weight loss); details: for crystal formation in air freshener device over time: 2, 5 and 10 wt. % solutions in DPM, plugged-in device, inspected daily for 4 weeks
Description: Each solution (24 mL) was added to a P&G electronic air freshener device and plugged in to a standard 120v outlet. The devices were inspected and weighed daily for 4 weeks. The mass of each device was no longer recorded after the device stopped losing weight.
FIGS. 3-5 show the % weight loss of each solution in the P&G electronic air freshener device.

[3] = Headspace Method, air/solvent partition out of dipropylene glycol methyl ether (DPM); details: relative to ethylvanillin
Description: as §1, §2, §3, §4, §5

Compound	goes into the headspace more than ethylvanillin out of IPM [1]	weight loss rate of solution in air freshener device ([2]; 2, 5 and 10 wt. % in DPM, most noticeable in the 5% and 10% solutions)	crystal formation in air freshener device over time [2]	goes into the headspace more than ethylvanillin out of DPM [3]
CCOc1cccc(C=O)c1O [ortho-Ethylvanillin, 2-hydroxy-3-ethoxybenzaldehyde]	about 6.2 ×	steeper weight loss rate than the EV and V solutions	no crystals formed	about 94 ×
CCOc1cc(C=O)ccc1O [Ethylvanillin, reference compound]			crystals were seen to form	
COc1cc(C=O)ccc1O [Vanillin, reference compound]			crystals were seen to form	
